In patent US20050222146A1, “N-substituted-n-sulfonylaminocyclopropane compounds and pharmaceutical use thereof” (priority 2003, published 2005) one finds IC50 data, which are given here for 17 compounds.

Usually IC50 stands for the midpoint of a concentration-inhibition curve.

Assay [1] concerns the target T1, MMP-1 (Homo sapiens, UniProt P03956).
T1 sequence (P03956 100-469): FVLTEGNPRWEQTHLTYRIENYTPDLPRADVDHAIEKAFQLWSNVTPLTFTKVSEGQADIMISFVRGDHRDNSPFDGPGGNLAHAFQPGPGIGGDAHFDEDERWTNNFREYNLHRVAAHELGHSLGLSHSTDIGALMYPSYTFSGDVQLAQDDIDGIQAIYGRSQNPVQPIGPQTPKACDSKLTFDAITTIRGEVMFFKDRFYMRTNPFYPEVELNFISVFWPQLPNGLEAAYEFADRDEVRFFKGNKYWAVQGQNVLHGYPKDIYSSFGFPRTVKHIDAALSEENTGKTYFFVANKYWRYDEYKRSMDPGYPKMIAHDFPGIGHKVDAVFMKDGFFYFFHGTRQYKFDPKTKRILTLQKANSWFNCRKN
Put plainly: MMP-1 inhibitory action, Type I collagen Activity Measurement kit (FITC-labeled collagen type I). Format: biochemical. Particulars: 37° C. for 3 hr, read-out: Experimental Example 2 IC50 MMP1. On the procedure: For MMP-1 Assay, Type I collagen Activity Measurement kit (YAGAI YU-72013) modified to a 96-well plate format was used.
The principle of the kit is based on the property of collagen that becomes soluble in ethanol after being cleaved by MMP-1.
(§1) The enzyme and substrate were diluted with Tris-HCl buffer, and test compounds were diluted with dimethyl sulfoxide (DMSO).
The enzyme and test compounds were added into 96-well plate, and fluorescein isothiocianate (FITC)-labeled collagen type I was added as a substrate and the mixture was incubated at 37° C. for 3 hr.
The reaction was terminated by addition of Tris-HCl buffer containing ethanol. After centrifugation, the supernatant containing denatured substrate was transferred to another 96-well plate. The collagenase activity of MMP-1 was determined by measuring FITC fluorescence intensity (excitation wavelength 485 nm, emission wavelength 530 nm) of each well. The inhibitory activity of the compound in each well (%) was calculated based on the values of enzyme-free well and inhibitor-free well. The inhibitory activity of the compound was represented as IC50 (μM).

Assay [2] concerns the target T2, aggrecanase-1 (Homo sapiens, UniProt O75173).
T2 sequence (O75173 213-837): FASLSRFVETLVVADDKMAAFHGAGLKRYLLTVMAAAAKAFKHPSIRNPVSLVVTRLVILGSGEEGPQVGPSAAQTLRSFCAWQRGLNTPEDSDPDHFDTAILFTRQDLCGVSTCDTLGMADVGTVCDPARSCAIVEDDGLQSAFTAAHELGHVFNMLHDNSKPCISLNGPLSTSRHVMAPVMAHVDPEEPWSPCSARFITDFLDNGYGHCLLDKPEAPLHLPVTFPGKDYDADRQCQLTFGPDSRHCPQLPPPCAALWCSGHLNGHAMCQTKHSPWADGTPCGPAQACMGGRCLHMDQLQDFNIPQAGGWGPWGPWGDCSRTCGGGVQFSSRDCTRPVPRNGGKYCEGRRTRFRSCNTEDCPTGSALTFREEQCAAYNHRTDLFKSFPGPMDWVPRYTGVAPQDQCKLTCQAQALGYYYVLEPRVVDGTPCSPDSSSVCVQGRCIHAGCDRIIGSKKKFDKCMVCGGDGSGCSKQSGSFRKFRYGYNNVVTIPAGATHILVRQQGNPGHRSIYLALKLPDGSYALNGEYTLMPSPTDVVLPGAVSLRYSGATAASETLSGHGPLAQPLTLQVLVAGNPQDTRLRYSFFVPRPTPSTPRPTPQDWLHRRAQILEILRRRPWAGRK
Description: Aggrecanase-1 inhibitory action, Particle Assay (GAG release from aggrecan-containing polyacrylamide particles). Format: biochemical. Particulars: 37° C. for 15 hr, read-out: Experimental Example 1 IC50 AG1. On the procedure:
Aggrecanase-1 Inhibitory Action
Particle Assay was used for determination of aggrecanase activity.
as §1
Test compounds and the enzyme were added into 96-well plate, and polyacrylamide particles containing aggrecan were added as a substrate and the mixture was incubated at 37° C. for 15 hr.
After incubation; the supernatant was transferred to another plate, and mixed with 1,9-dimethylmethylene blue. The absorbance at 595 nm was measured to quantify the amount of glycosaminoglycan (GAG) released in the reaction supernatant. Whale chondroitin sulfate was used as the standard of GAG. The inhibitory activity of the compound in each well (%) was calculated based on the values of enzyme-free well and inhibitor-free well. The inhibitory activity of the compound was represented as IC50 (μM).

Each structure is given as a SMILES string.

Regarding `O=C(O)CN([C@]1(C(=O)O)C[C@H]1c1cccc(Cc2ccccc2)c1)S(=O)(=O)c1ccc(-c2ccc(Cl)cc2)cc1` (relative stereo) [Example 1-44, (1R*, 2S*)-2-(3-benzyl-phenyl)-1-[carboxymethyl-(4′-chloro-biphenyl-4-sulfonyl)-amino]-cyclopropanecarboxylic acid], the figures for the IC50 in assay [1] and in assay [2] were at least 10 µM and below 0.1 µM, respectively.
In the same order, the values of `O=C(CN([C@]1(C(=O)O)C[C@H]1c1ccccc1)S(=O)(=O)c1ccc(-c2ccc(Cl)cc2)cc1)N1CCCC1` (relative stereo) [Example 1-45, (1R*,2S*)-1-[(4′-chloro-biphenyl-4-sulfonyl)-(2-oxo-2-pyrrolidin-1-yl-ethyl)-amino]-2-phenyl-cyclopropanecarboxylic acid] are at least 10 µM and below 1 µM.
In the case of `COC(=O)CN([C@]1(C(=O)O)C[C@H]1c1ccccc1)S(=O)(=O)c1ccc(-c2ccc(Cl)cc2)cc1` (relative stereo) [Example 1-46, (1R*,2S*)-1-[(4′-chloro-biphenyl-4-sulfonyl)-methoxycarbonylmethyl-amino]-2-phenyl-cyclopropanecarboxylic acid], the IC50 was at least 10 µM in assay [1] and below 1 µM in assay [2].
Turning to `CC(C)COc1cccc([C@@H]2C[C@@]2(C(=O)O)N(CC(=O)O)S(=O)(=O)c2ccc(-c3ccc(Cl)cc3)cc2)c1` (relative stereo) [Example 1-47, (1R*,2S*)-1-[carboxymethyl-(4′-chloro-biphenyl-4-sulfonyl)-amino]-2-(3-isobutoxy-phenyl)-cyclopropanecarboxylic acid], the IC50 in assay [1] is at least 10 µM; in assay [2], below 0.1 µM.
In the same order, the values of `O=C(O)CN([C@]1(C(=O)O)C[C@H]1c1cccc(OC2CCCCC2)c1)S(=O)(=O)c1ccc(-c2ccc(Cl)cc2)cc1` (relative stereo) [Example 1-48, (1R*,2S*)-1-[carboxymethyl-(4′-chloro-biphenyl-4-sulfonyl)-amino]-2-(3-cyclohexyloxy-phenyl)-cyclopropanecarboxylic acid] are at least 10 µM and below 0.1 µM.
Take `O=C(O)c1cccc(CN([C@]2(C(=O)O)C[C@H]2c2cccc(Oc3ccccc3)c2)S(=O)(=O)c2ccc(-c3ccc(Cl)cc3)cc2)c1` (relative stereo) [Example 1-51, (1R*,2S*)-3-{[[1-carboxy-2-(3-phenoxy-phenyl)-cyclopropyl]-(4′-chloro-biphenyl-4-sulfonyl)-amino]-methyl}-benzoic acid]: the IC50 in assay [1] is at least 10 µM; in assay [2] it was below 0.1 µM.
For `CCOC(=O)CN([C@]1(C(=O)O)C[C@H]1c1cccc(Oc2ccccc2)c1)S(=O)(=O)c1ccc(-c2ccc(Cl)cc2)cc1` (relative stereo) [Example 1-52, (1R*,2S*)-1-[(4′-chloro-biphenyl-4-sulfonyl)-ethoxycarbonylmethyl-amino]-2-(3-phenoxy-phenyl)-cyclopropanecarboxylic acid] the same measures were at least 10 µM and below 1 µM.
For `CN([C@]1(C(=O)O)C[C@H]1c1cccc(Oc2ccccc2)c1)S(=O)(=O)c1ccc(-c2ccc(Cl)cc2)cc1` (relative stereo) [Example 1-53, (1R*,2S*)-1-[(4′-chloro-biphenyl-4-sulfonyl)-methyl-amino]-2-(3-phenoxy-phenyl)-cyclopropanecarboxylic acid] the same measures were at least 10 µM and below 1 µM.
For `O=C(O)c1ccc(CN([C@]2(C(=O)O)C[C@H]2c2ccccc2)S(=O)(=O)c2ccc(-c3ccc(Cl)cc3)cc2)o1` (relative stereo) [Example 1-55, 5-{[((1R*,2S*)-1-carboxy-2-phenyl-cyclopropyl)-(4′-chloro-biphenyl-4-sulfonyl)-amino]-methyl}-furan-2-carboxylic acid], the IC50 in assay [1] was at least 10 µM; in assay [2], below 1 µM.
Regarding `O=C(O)c1cccnc1CN([C@]1(C(=O)O)C[C@H]1c1ccccc1)S(=O)(=O)c1ccc(-c2ccc(Cl)cc2)cc1` (relative stereo) [Example 1-56, 2-{[((1R*,2S*)-1-carboxy-2-phenyl-cyclopropyl)-(4′-chloro-biphenyl-4-sulfonyl)-amino]-methyl}-nicotinic acid], the figures for the IC50 in assay [1] and in assay [2] were at least 10 µM and below 1 µM, respectively.
Consider `O=C(O)c1csc(CN([C@]2(C(=O)O)C[C@H]2c2ccccc2)S(=O)(=O)c2ccc(-c3ccc(Cl)cc3)cc2)n1` (relative stereo) [Example 1-60, 2-{[((1R*, 2S*)-1-carboxy-2-phenyl-cyclopropyl)-(4′-chloro-biphenyl-4-sulfonyl)-amino]-methyl}-thiazole-4-carboxylic acid], for which the IC50 in assay [1] is at least 10 µM; in assay [2] it was below 1 µM.
In the same order, the values of `O=C(CN([C@]1(C(=O)O)C[C@H]1c1ccccc1)S(=O)(=O)c1ccc(-c2ccc(Cl)cc2)cc1)Nc1nnn[nH]1` (relative stereo) [Example 1-61, (1R*,2S*)-1-{(4′-chloro-biphenyl-4-sulfonyl)-[(1H-tetrazol-5-ylcarbamoyl)-methyl]-amino}-2-phenyl-cyclopropanecarboxylic acid] are at least 10 µM and below 1 µM.
For `CS(=O)(=O)Nc1cccc(CN([C@]2(C(=O)O)C[C@H]2c2ccccc2)S(=O)(=O)c2ccc(-c3ccc(Cl)cc3)cc2)c1` (relative stereo) [Example 1-62, (1R*,2S*)-1-[(4′-chloro-biphenyl-4-sulfonyl)-(3-methanesulfonylamino-benzyl)-amino]-2-phenyl-cyclopropanecarboxylic acid] the same measures were at least 10 µM and below 1 µM.
In the same order, the values of `O=C(O)[C@@]1(N(CCNS(=O)(=O)C(F)(F)F)S(=O)(=O)c2ccc(-c3ccc(Cl)cc3)cc2)C[C@H]1c1ccccc1` (relative stereo) [Example 1-63, (1R*,2S*)-1-[(4′-chloro-biphenyl-4-sulfonyl)-(2-trifluoromethanesulfonylamino-ethyl)-amino]-2-phenyl-cyclopropanecarboxylic acid] are at least 10 µM and below 1 µM.
With `O=C(O)CN([C@]1(C(=O)O)C[C@H]1c1cccc(O)c1)S(=O)(=O)c1ccc(-c2ccc(Cl)cc2)cc1` (relative stereo) [Example 1-66, (1R*,2S*)-1-[carboxymethyl-(4′-chloro-biphenyl-4-sulfonyl)-amino]-2-(3-hydroxy-phenyl)-cyclopropanecarboxylic acid], the IC50 in assay [1] was at least 10 µM; in assay [2], below 0.1 µM.
For `CC(C)(C)OC(=O)N1CCC(Oc2cccc([C@H]3C[C@]3(C(=O)O)N(CC(=O)O)S(=O)(=O)c3ccc(-c4ccc(Cl)cc4)cc3)c2)CC1` (relative stereo) [Example 1-67, 4-(3-{(1R*,2S*)-2-Carboxy-2-[carboxymethyl-(4′-chloro-biphenyl-4-sulfonyl)-amino]-cyclopropyl}-phenoxy)-piperidine-1-carboxylic acid tert-butyl ester] the same measures were at least 10 µM and below 0.1 µM.
On to `O=C(O)CN([C@]1(C(=O)O)C[C@H]1c1cccc(OC2CCNCC2)c1)S(=O)(=O)c1ccc(-c2ccc(Cl)cc2)cc1` (relative stereo) [Example 1-68, (1R*,2S*)-1-[carboxymethyl-(4′-chloro-biphenyl-4-sulfonyl)-amino]-2-[3-(piperidin-4-yloxy)-phenyl]-cyclopropanecarboxylic acid], for which the IC50 in assay [1] was at least 10 µM; in assay [2], below 1 µM.
